From patent US12673944B2, “Compounds having inhibitory activity against glucosylceramide synthase or pharmaceutically acceptable salt thereof, processes for preparing the same, and pharmaceutical compositions comprising the same” (YUHAN CORPORATION, priority 2019, dated 2026)
pIC50: −log10 of the molar value.

Legend:
[1] = test system: GM1 production in Jurkat cells; experiment: cells; assay type: cell-based; settings: Homo sapiens, Jurkat, 72 h
[2] = target: T1, glucosylceramide synthase (GCS) (Homo sapiens, UniProt Q16739); experiment: GCS enzyme inhibition assay (A549 cell lysate, NBD C6-ceramide, HPLC fluorescence); assay type: biochemical; settings: inhibitory activity against GCS, 37° C., 90 minutes
T1 construct: The obtained supernatant was used; host or cells: A549 cells (lysate supernatant after sonication)
T1 sequence (Q16739 1-394): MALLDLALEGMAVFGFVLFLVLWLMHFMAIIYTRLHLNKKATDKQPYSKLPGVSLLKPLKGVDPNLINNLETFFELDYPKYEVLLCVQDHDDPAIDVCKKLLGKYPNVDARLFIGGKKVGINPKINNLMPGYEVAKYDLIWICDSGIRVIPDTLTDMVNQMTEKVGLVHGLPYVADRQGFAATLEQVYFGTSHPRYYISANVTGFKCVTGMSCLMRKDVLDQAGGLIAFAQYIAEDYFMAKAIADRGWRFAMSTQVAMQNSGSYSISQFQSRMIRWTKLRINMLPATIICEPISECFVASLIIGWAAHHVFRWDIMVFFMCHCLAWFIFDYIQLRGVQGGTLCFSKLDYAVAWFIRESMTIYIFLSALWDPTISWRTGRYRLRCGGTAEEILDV
In short: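 A549 cell lysate (50 mM HEPES pH 7.3) served as GCS source; reactions ran 90 min at 37° C, were stopped with chloroform/methanol and lipids extracted. Activity taken as GlcCer/(Cer+GlcCer) peak area, normalised between DMSO and ibiglustat controls.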

SMILES | pIC50 [1] | pIC50 [2]
O=C(NC1CCOc2cc(-c3ccc4c(c3)OC(F)(F)O4)ccc21)O[C@@H]1CN2CCC1CC2 (stereo partly drawn) [Example 36, (S)-quinuclidin-3-yl (7-(2,2-difluorobenzo[d][1,3]dioxol-5-yl)chroman-4-yl)carbamate] | 7.96 | 8.82
COc1ccc(-c2cc3c(cc2F)C(NC(=O)O[C@@H]2CN4CCC2CC4)C(C)(C)CO3)c(F)c1 (stereo partly drawn) [Example 341, (S)-quinuclidin-3-yl (6-fluoro-7-(2-fluoro-4-methoxyphenyl)-3,3-dimethylchroman-4-yl)carbamate] | 8.39 | 9.77
CC1(NC(=O)O[C@@H]2CN3CCC2CC3)CCOc2cc(-c3cccc(OC(F)(F)F)c3)ccc21 (stereo partly drawn) [Example 306, (S)-quinuclidin-3-yl (4-methyl-7-(3-(trifluoromethoxy)phenyl)chroman-4-yl)carbamate] | 8.52 | 9.30
O=C(NC1CCOc2cc(-c3ccc(Cl)c(Cl)c3)ccc21)O[C@@H]1CN2CCC1CC2 (stereo partly drawn) [Example 28, (S)-quinuclidin-3-yl (7-(3,4-dichlorophenyl)chroman-4-yl)carbamate] | 7.62 | 8.28
Cc1ccc(-c2ccc3c(c2)OCC(C)(C)C3NC(=O)O[C@@H]2CN3CCC2CC3)c2cccnc12 (stereo partly drawn) [Example 113, (S)-quinuclidin-3-yl (3,3-dimethyl-7-(8-methylquinolin-5-yl)chroman-4-yl)carbamate] | 7.89 | 8.53
COc1ccc(-c2ccc3c(c2)OCC(C)(C)C3NC(=O)O[C@@H]2CN3CCC2CC3)cc1 (stereo partly drawn) [Example 206, (S)-quinuclidin-3-yl (7-(4-methoxyphenyl)-3,3-dimethylchroman-4-yl)carbamate] | 11.00 | 9.30
CC1(C)COc2cc(-c3cc(F)ccc3F)ccc2C1NC(=O)O[C@@H]1CN2CCC1CC2 (stereo partly drawn) [Example 234, (S)-quinuclidin-3-yl (7-(2,5-difluorophenyl)-3,3-dimethylchroman-4-yl)carbamate] | 8.96 | 9.40
COc1ccc(Cl)c(-c2ccc3c(c2)OCCC3(C)NC(=O)O[C@@H]2CN3CCC2CC3)c1 (stereo partly drawn) [Example 301, (S)-quinuclidin-3-yl (7-(2-chloro-5-methoxyphenyl)-4-methylchroman-4-yl)carbamate] | 7.76 | 9.10
Cc1cscc1-c1ccc2c(c1)OCCC2(C)NC(=O)O[C@@H]1CN2CCC1CC2 (stereo partly drawn) [Example 311, (S)-quinuclidin-3-yl (4-methyl-7-(4-methylthiophen-3-yl)chroman-4-yl)carbamate] | 9.15 | 9.77
Cn1ncc2ccc(-c3ccc4c(c3)OCCC4NC(=O)O[C@@H]3CN4CCC3CC4)cc21 (stereo partly drawn) [Example 50, (S)-quinuclidin-3-yl (7-(1-methyl-1H-indazol-6-yl)chroman-4-yl)carbamate] | 7.59 | 8.40
O=C(NC1CCOc2ccc(-c3ccc(OC(F)(F)F)cc3)cc21)O[C@@H]1CN2CCC1CC2 (stereo partly drawn) [Example 94, (S)-quinuclidin-3-yl (6-(4-(trifluoromethoxy)phenyl)chroman-4-yl)carbamate] | 6.39 | 8.09
CC1(NC(=O)O[C@@H]2CN3CCC2CC3)CCOc2cc(-c3coc4ccccc34)ccc21 (stereo partly drawn) [Example 304, (S)-quinuclidin-3-yl (7-(benzofuran-3-yl)-4-methylchroman-4-yl)carbamate] | 8.68 | 9.42
CC1(C)COc2cc(-c3cccc(C(F)(F)F)c3Cl)ccc2C1NC(=O)O[C@@H]1CN2CCC1CC2 (stereo partly drawn) [Example 138, (S)-quinuclidin-3-yl (7-(2-chloro-3-(trifluoromethyl)phenyl)-3,3-dimethylchroman-4-yl)carbamate] | 8.80 | 9.20
COc1ccc(-c2cc3c(cc2OC)C(NC(=O)O[C@@H]2CN4CCC2CC4)C(C)(C)CO3)c(F)c1 (stereo partly drawn) [Example 360, (S)-quinuclidin-3-yl (7-(2-fluoro-4-methoxyphenyl)-6-methoxy-3,3-dimethylchroman-4-yl)carbamate] | 8.00 | 9.26
COc1ncc(-c2ccc3c(c2)OCCC3NC(=O)O[C@@H]2CN3CCC2CC3)cc1C(F)(F)F (stereo partly drawn) [Example 71, (S)-quinuclidin-3-yl (7-(6-methoxy-5-(trifluoromethyl)pyridin-3-yl)chroman-4-yl)carbamate] | 7.41 | 8.28
CC1(C)COc2cc(-c3ccc4cc[nH]c4c3)ccc2C1NC(=O)O[C@@H]1CN2CCC1CC2 (stereo partly drawn) [Example 197, (S)-quinuclidin-3-yl (7-(1H-indol-6-yl)-3,3-dimethylchroman-4-yl)carbamate] | 8.70 | 9.05
O=C(NC1CCOc2cc(-c3ccccc3C(F)(F)F)ccc21)O[C@@H]1CN2CCC1CC2 (stereo partly drawn) [Example 11, (S)-quinuclidin-3-yl (7-(2-(trifluoromethyl)phenyl)chroman-4-yl)carbamate] | 7.74 | 7.98
CC1(C)COc2cc(-c3ccc4c(c3)OCCO4)ccc2C1NC(=O)O[C@@H]1CN2CCC1CC2 (stereo partly drawn) [Example 172, (S)-quinuclidin-3-yl (7-(2,3-dihydrobenzo[b][1,4]dioxin-6-yl)-3,3-dimethylchroman-4-yl)carbamate] | 8.72 | 9.43
COc1ccc(Cl)c(-c2cc3c(cc2OC)C(NC(=O)O[C@@H]2CN4CCC2CC4)C(C)(C)CO3)c1 (stereo partly drawn) [Example 359, (S)-quinuclidin-3-yl (7-(2-chloro-5-methoxyphenyl)-6-methoxy-3,3-dimethylchroman-4-yl)carbamate] | 8.62 | 9.21
O=C(NC1CCOc2ccc(-c3cccc(F)c3)cc21)O[C@@H]1CN2CCC1CC2 (stereo partly drawn) [Example 86, (S)-quinuclidin-3-yl (6-(3-fluorophenyl)chroman-4-yl)carbamate] | 6.74 | 8.01
CC(C)Oc1cc(F)cc(-c2ccc3c(c2)OCC(C)(C)C3NC(=O)O[C@@H]2CN3CCC2CC3)c1 (stereo partly drawn) [Example 136, (S)-quinuclidin-3-yl (7-(3-fluoro-5-isopropoxyphenyl)-3,3-dimethylchroman-4-yl)carbamate] | 8.56 | 9.21
Cc1ccc(-c2ccc3c(c2)OCC(C)(C)C3NC(=O)O[C@@H]2CN3CCC2CC3)cc1C#N (stereo partly drawn) [Example 199, (S)-quinuclidin-3-yl (7-(3-cyano-4-methylphenyl)-3,3-dimethylchroman-4-yl)carbamate] | 8.44 | 9.29
COc1cc2c(cc1-c1ccsc1)OCC(C)(C)C2NC(=O)O[C@@H]1CN2CCC1CC2 (stereo partly drawn) [Example 357, (S)-quinuclidin-3-yl (6-methoxy-3,3-dimethyl-7-(thiophen-3-yl)chroman-4-yl)carbamate] | 8.40 | 9.35
Cc1cc(-c2ccc3c(c2)OCC(C)(C)C3NC(=O)O[C@@H]2CN3CCC2CC3)cc(C)c1OC(C)C (stereo partly drawn) [Example 263, (S)-quinuclidin-3-yl (7-(4-isopropoxy-3,5-dimethylphenyl)-3,3-dimethylchroman-4-yl)carbamate] | 8.40 | 8.84
COc1ccc(F)cc1-c1ccc2c(c1)OCC(C)(C)C2NC(=O)O[C@@H]1CN2CCC1CC2 (stereo partly drawn) [Example 252, (S)-quinuclidin-3-yl (7-(5-fluoro-2-methoxyphenyl)-3,3-dimethylchroman-4-yl)carbamate] | 8.85 | 9.27
CC1(C)COc2cc(-c3ccc(F)c(F)c3)ccc2C1NC(=O)O[C@@H]1CN2CCC1CC2 (stereo partly drawn) [Example 238, (S)-quinuclidin-3-yl (7-(3,4-difluorophenyl)-3,3-dimethylchroman-4-yl)carbamate] | 8.23 | 9.33
CCOc1ccc(-c2cc3c(cc2F)C(NC(=O)O[C@@H]2CN4CCC2CC4)C(C)(C)CO3)cc1 (stereo partly drawn) [Example 337, (S)-quinuclidin-3-yl (7-(4-ethoxyphenyl)-6-fluoro-3,3-dimethylchroman-4-yl)carbamate] | 8.92 | 9.64
COc1cccc(Cl)c1-c1ccc2c(c1)OCC(C)(C)C2NC(=O)O[C@@H]1CN2CCC1CC2 (stereo partly drawn) [Example 121, (S)-quinuclidin-3-yl (7-(2-chloro-6-methoxyphenyl)-3,3-dimethylchroman-4-yl)carbamate] | 7.80 | 8.57
